Data on 2 compounds can be found in US20230382949A1 (HEPTARES THERAPEUTICS LIMITED, priority 2020, published 2023).

Read-outs that look alike come from different tables or passages of the source. Starred links: 1 amine or outer side, 2 acyl side, 3 side chain; linkers in the order of their positions; H or OH if unused. Non-standard residues stand in square brackets, D forms with d. Residues, ends and D or L forms follow the SMILES beside them. *: point of attachment. Ala(piperidin-4-yl) = O=C([C@H](CC1CCN([*:3])CC1)N[*:1])[*:2]; Malonyl(2,2-Me2,histaminyl) = CC(C)(C(=O)NCCc1cnc[nH]1)C(=O)*; dBip = N[C@H](Cc1ccc(-c2ccccc2)cc1)C(=O)O; Oic = O=C(O)[C@@H]1C[C@@H]2CCCC[C@@H]2N1; Phe(4-Br) = N[C@@H](Cc1ccc(Br)cc1)C(=O)O; X4 = CC(C)(C(=O)NCCCc1cnc[nH]1)C(=O)*; hArg = N=C(N)NCCCC[C@H](N)C(=O)O; Pip = O=C(O)[C@@H]1CCCCN1; Nle = CCCC[C@H](N)C(=O)O; Aib = CC(C)(N)C(=O)O

In assay [1] the target is T1, human Apelin receptor (Homo sapiens, UniProt P35414).
T1 construct: host or cells: CHO-K1 cells
Kind of assay: β-arrestin accumulation assay, functional agonism of human Apelin receptors. The format is cell-based. The essentials: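 After 16 h at 37° C., cells were exposed to increasing agonist concentrations in serum-free medium for 90 min at 37° C. Detection reagent added for 60 min in the dark; receptor activation read by fluorescence and EC50 derived from concentration-response curves.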
T1 sequence (P32121 whole entry partner, one chain of several): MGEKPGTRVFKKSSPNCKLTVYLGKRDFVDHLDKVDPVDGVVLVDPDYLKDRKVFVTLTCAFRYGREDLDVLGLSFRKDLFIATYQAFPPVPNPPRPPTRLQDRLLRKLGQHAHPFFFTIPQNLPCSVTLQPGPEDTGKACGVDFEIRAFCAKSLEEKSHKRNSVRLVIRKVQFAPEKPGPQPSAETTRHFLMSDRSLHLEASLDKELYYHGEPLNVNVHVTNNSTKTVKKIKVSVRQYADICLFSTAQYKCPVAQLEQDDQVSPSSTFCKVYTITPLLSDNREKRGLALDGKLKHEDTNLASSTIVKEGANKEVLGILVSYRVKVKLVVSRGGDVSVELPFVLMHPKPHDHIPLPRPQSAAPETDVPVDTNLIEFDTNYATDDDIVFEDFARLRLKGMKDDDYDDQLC

The target of assay [2] is T2, human Apelin receptor (Homo sapiens, UniProt P35414).
T2 sequence (P35414 1-380): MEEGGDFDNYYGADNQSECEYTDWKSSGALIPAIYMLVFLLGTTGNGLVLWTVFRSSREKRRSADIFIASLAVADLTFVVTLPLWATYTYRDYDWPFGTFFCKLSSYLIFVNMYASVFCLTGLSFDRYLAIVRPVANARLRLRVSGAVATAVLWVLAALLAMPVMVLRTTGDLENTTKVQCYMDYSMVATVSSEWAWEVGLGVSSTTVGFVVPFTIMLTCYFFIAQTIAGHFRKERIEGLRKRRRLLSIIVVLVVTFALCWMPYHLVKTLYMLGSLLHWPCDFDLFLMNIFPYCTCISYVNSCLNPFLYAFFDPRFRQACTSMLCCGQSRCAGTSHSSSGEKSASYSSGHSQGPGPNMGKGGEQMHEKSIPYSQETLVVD
Description: cAMP accumulation assay (HTRF), functional agonism of human Apelin receptors. The settings on record: for Emax: CHO. The assay is classed as cell-based. From the text: cAMP functional assay. cAMP production was quantified using the Homogeneous Time-Resolved Fluorescence (HTRF) cAMP dynamic-2 assay (Cisbio, France).
A general note: Changes in cAMP serve as a functional read-out for many G protein-coupled receptors.

For the compound `CC(C)C[C@H](NC(=O)[C@@H](CCCNC(=N)N)NC(=O)[C@@H]1CCCN1C(=O)[C@H](CCCCNC(=N)N)NC(=O)[C@H](CCC(N)=O)NC(=O)C(C)(C)C(=O)NCCCc1cnc[nH]1)C(=O)NC(C)(C)C(=O)N[C@@H](Cc1c[nH]cn1)C(=O)N[C@@H](CC1CCNCC1)C(=O)NCC(=O)N1[C@H](C(=O)N[C@@H](Cc2ccc(Br)cc2)C(=O)N2CCC[C@H]2C(=O)N[C@H](Cc2ccc(-c3ccccc3)cc2)C(=O)O)C[C@@H]2CCCC[C@@H]21` [Example 61] (X4-Q[hArg]P[dR]L[Aib]H[Ala(piperidin-4-yl)]G[Oic][Phe(4-Br)]P[dBip]-OH), the EC50 is > 100000 nM in assay [1] and 10 nM in assay [2] (pEC50, Human Apelin agonist cAMP assay, CHO cells stably expressing the human Apelin receptor, 3 uM forskolin). This compound also registered a maximal response (Emax) in assay [2] (Human Apelin agonist cAMP assay, CHO cells stably expressing the human Apelin receptor, 3 uM forskolin) of 41.8%.
As for `CCCC[C@H](NC(=O)[C@@H]1C[C@@H]2CCCC[C@@H]2N1C(=O)[C@H](C)NC(=O)[C@H](CC1CCNCC1)NC(=O)[C@H](Cc1ccc(Br)cc1)NC(=O)C(C)(C)NC(=O)[C@H](CC(C)C)NC(=O)[C@@H](CCCNC(=N)N)NC(=O)[C@@H]1CCCCN1C(=O)[C@H](CCCCNC(=N)N)NC(=O)[C@H](CCC(N)=O)NC(=O)C(C)(C)C(=O)NCCc1cnc[nH]1)C(=O)N1CCC[C@H]1C(=O)N[C@H](Cc1ccc(-c2ccccc2)cc1)C(=O)O` [Example 62] ({Malonyl(2,2-Me2,histaminyl)}-Q[hArg][Pip][dR]L[Aib][Phe(4-Br)][Ala(piperidin-4-yl)]A[Oic][Nle]P[dBip]-OH), the EC50 in assay [1] is > 10000 nM; in assay [2] (read-out: pEC50 (converted)) it was 100 nM. In addition, the Emax in assay [2] (read-out: Emax) was determined as 31.7%.

What is called Emax is the greatest response seen or fitted, relative to the assay's reference.
